Laboratory results reported in patent US20240279240A1, “HETEROCYCLIC DERIVATIVES AS JANUS KINASE INHIBITORS” (CHIESI FARMACEUTICI S.P.A., priority 2021, published 2024).

How the values were obtained:
[1] = biological target: T1, JAK 3 (Homo sapiens, UniProt P52333); assay: Biochemical potency on JAK3, TR-FRET LANCE Ultra kinase assay (examples 1-99); settings: ATP at Km (0.2 μM), read-out: JAK3 inhibitory activity (pIC50 class) (converted)
T1 sequence (P52333 1-1124): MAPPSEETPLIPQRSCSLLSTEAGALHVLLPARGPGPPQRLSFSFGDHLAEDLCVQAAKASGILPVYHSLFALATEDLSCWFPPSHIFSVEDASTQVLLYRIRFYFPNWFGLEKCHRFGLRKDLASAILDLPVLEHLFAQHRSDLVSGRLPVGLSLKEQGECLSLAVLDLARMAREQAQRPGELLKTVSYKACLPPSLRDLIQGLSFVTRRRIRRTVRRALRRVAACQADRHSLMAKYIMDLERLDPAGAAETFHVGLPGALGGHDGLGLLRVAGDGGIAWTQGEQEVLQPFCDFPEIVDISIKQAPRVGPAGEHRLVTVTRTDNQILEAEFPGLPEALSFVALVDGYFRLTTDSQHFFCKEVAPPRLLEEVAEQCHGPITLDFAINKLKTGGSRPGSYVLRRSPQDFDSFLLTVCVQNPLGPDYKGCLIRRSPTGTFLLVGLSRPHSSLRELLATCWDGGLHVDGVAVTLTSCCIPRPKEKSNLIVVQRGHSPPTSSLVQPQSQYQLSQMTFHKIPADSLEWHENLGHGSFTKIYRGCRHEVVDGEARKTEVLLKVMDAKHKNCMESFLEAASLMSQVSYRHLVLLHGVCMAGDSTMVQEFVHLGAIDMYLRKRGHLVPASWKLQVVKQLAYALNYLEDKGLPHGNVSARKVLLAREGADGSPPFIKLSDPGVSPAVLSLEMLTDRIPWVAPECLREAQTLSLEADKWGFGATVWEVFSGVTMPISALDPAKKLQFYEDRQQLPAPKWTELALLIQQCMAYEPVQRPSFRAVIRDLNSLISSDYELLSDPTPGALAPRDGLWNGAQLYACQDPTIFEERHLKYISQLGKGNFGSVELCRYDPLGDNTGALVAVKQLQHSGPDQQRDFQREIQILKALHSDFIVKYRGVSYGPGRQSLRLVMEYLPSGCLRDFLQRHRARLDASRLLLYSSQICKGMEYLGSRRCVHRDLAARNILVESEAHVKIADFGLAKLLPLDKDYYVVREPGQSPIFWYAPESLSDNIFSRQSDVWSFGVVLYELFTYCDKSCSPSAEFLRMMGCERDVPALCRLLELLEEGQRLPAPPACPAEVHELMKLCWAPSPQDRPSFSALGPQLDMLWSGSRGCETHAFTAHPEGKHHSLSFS
Protocol: (§1) The objective of this study was to assess the capability of compounds to inhibit all 4 JAK isoforms activity in a cell-free environment. Assay for JAK 1, JAK 2, JAK 3 and TYK2 were performed by Time-resolved fluorescence resonance energy transfer (TR-FRET) technology. It consists in the interaction of two labelled binding partners detected by the energy transfer from an excited donor to an acceptor dye and measurement of light emission by the acceptor dye. LANCE Ultra kinase assay was used. In presence of JAK 1, JAK 2, JAK 3 and TYK2 kinases and ATP (corresponding to Km), the ULight peptide substrate (LANCE Ulight-JAK-1 (Tyr1023) Peptide, Perkin Elmer, TRF0121) is phosphorylated. It is then captured by Eu-anti-phospho-substrate antibody (LANCE Eu-W1024 Anti-phosphotyrosine (PT66), Perkin Elmer, AD0069), which bring the Eu-chelate donor and ULight acceptor dyes into close proximity. Upon excitation at 320 nm, the Eu-chelate transfers its energy to the ULight dye, resulting in a fluorescent light emission at 665 nm.
(§2) Serial dilutions of compounds in pure DMSO are prepared from 10 mM DMSO stock solutions. Compounds were tested in 384-well plate for 11 consecutive 5-fold dilutions starting from 20 μM highest concentration (20 μM-[…]). 200 nL of compound were transferred from mother plate to test plate by using Mosquito (TTP labtech). Assay was performed in 384-well Perkin Elmer test plate in 20 μL assay volume (kinase reaction) and 40 μL total volume (stopping reagent and antibody detection reagents). In 10 μL of substrate solution (peptide+ATP) 30/50/20/10 nM of peptide and 20/0.7/0.2/12 μM of ATP were added for JAK 1, JAK 2, JAK 3 and TYK2 respectively. 10 μL of enzyme solution was added to kinase reaction at these concentrations: 0.15/0.083/0.025/0.144 ng/μL of JAK 1, JAK 2, JAK 3 and TYK2 respectively. After shaking and 1.5 h of incubation at r.t., 20 μL of Stop (10 μL EDTA) and Detection mixture (10 μL Europium-anti-phospho antibody, final: 0.5 nM) were added. Reading was performed after 1 h of incubation on a EnVision 2104 reader (Perkin Elmer).
(§3) Calculation of IC50 data, curves and QC analysis was performed by using Excel tool and GraphPadPrism software, v9. Briefly, individual concentration-effect curves are generated by plotting the logarithm of the tested concentration of tested compounds (X) vs. corresponding percent inhibition values (Y) using least squares (ordinary) fit. Best fit IC50 values are calculated using Log(inhibitor) vs. normalized response—Variable slope equation, where Y=100/(1+10^((Log IC50−X)*HillSlope)). QC criteria parameters (Z′, S:B, R2, HillSlope) were checked for every IC50 curve. Calculation of IC50 data, curves and QC analysis were made using Excel tools and GraphPadPrism software. QC criteria parameters: Z′≥0.5, Hill Slope range 0.5 to 5, S:B>2.

[2] = biological target: JAK 2 (Homo sapiens, UniProt O60674); assay: Biochemical potency on JAK2, TR-FRET LANCE Ultra kinase assay (examples 1-99); settings: ATP at Km (0.7 μM), read-out: JAK2 inhibitory activity (pIC50 class) (converted)
Protocol: as §1, §2, §3

[3] = biological target: JAK 1 (Homo sapiens, UniProt P23458); assay: Biochemical potency on JAK1, TR-FRET LANCE Ultra kinase assay (examples 1-99); settings: ATP at Km (20 μM), read-out: JAK1 inhibitory activity (pIC50 class) (converted)
Protocol: as §1, §2, §3

[4] = biological target: TYK2 (Homo sapiens, UniProt P29597); assay: Biochemical potency on Tyk2, TR-FRET LANCE Ultra kinase assay (examples 1-99); settings: ATP at Km (12 μM), read-out: Tyk2 inhibitory activity (pIC50 class) (converted)
Protocol: as §1, §2, §3

Sequence of JAK 1 (P23458 whole entry): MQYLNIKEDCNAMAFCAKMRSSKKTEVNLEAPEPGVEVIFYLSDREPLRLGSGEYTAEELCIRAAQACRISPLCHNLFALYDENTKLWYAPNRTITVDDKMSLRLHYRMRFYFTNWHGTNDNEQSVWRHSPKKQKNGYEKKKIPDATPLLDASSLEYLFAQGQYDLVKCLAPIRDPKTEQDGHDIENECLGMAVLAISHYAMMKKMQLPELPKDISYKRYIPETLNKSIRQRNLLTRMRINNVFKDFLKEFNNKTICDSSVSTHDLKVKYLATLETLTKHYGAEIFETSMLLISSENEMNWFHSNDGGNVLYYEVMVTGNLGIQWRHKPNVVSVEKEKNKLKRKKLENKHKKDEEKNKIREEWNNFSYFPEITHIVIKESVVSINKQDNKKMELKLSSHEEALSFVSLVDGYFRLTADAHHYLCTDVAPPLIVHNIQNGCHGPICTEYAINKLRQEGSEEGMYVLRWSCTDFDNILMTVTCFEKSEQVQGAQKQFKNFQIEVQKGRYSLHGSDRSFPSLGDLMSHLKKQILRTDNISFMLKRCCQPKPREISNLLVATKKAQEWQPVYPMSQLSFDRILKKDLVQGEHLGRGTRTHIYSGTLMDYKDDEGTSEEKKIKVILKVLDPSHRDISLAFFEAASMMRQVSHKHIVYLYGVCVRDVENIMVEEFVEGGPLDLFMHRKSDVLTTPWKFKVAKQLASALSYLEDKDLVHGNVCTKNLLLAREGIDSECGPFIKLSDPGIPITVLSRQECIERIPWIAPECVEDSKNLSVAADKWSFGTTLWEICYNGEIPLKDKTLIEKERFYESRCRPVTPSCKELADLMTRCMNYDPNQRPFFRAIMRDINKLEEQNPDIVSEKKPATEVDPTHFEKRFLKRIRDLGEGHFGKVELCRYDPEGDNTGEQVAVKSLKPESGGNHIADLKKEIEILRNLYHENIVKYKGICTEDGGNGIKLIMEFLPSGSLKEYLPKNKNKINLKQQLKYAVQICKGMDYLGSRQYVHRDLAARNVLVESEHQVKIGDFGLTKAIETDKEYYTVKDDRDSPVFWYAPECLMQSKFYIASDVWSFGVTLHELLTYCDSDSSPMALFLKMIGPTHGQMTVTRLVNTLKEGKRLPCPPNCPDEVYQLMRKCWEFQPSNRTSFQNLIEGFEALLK
Sequence of TYK2 (P29597 whole entry): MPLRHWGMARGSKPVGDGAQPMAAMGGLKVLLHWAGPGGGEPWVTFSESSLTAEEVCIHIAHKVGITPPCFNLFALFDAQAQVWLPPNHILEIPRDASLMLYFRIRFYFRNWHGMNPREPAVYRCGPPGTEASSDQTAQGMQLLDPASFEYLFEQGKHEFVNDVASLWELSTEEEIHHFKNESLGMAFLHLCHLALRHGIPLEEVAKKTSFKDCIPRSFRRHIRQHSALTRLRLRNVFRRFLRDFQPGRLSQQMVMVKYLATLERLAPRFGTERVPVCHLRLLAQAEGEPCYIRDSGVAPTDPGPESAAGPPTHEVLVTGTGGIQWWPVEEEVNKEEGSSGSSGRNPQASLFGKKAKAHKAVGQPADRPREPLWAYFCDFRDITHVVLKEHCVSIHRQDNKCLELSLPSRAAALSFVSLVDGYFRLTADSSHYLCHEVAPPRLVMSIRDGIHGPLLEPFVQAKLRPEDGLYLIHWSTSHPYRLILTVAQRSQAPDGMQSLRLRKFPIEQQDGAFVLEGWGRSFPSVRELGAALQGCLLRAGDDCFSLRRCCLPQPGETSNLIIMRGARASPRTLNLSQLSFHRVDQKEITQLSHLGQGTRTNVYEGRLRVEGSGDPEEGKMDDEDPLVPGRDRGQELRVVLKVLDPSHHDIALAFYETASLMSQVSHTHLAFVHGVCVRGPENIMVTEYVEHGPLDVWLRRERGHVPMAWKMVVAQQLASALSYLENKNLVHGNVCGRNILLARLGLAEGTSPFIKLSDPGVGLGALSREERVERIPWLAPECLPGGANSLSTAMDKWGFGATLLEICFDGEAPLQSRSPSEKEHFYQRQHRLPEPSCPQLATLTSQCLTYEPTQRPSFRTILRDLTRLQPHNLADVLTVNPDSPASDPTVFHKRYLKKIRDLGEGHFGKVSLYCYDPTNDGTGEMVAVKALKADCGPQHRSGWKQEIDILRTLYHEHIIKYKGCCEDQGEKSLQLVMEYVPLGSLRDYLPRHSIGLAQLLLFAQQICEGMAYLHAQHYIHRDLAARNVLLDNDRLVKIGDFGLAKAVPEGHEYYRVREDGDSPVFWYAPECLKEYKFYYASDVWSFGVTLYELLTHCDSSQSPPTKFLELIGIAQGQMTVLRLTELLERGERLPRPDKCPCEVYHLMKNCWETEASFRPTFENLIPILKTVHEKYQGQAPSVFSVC
Sequence of JAK 2 (O60674 whole entry): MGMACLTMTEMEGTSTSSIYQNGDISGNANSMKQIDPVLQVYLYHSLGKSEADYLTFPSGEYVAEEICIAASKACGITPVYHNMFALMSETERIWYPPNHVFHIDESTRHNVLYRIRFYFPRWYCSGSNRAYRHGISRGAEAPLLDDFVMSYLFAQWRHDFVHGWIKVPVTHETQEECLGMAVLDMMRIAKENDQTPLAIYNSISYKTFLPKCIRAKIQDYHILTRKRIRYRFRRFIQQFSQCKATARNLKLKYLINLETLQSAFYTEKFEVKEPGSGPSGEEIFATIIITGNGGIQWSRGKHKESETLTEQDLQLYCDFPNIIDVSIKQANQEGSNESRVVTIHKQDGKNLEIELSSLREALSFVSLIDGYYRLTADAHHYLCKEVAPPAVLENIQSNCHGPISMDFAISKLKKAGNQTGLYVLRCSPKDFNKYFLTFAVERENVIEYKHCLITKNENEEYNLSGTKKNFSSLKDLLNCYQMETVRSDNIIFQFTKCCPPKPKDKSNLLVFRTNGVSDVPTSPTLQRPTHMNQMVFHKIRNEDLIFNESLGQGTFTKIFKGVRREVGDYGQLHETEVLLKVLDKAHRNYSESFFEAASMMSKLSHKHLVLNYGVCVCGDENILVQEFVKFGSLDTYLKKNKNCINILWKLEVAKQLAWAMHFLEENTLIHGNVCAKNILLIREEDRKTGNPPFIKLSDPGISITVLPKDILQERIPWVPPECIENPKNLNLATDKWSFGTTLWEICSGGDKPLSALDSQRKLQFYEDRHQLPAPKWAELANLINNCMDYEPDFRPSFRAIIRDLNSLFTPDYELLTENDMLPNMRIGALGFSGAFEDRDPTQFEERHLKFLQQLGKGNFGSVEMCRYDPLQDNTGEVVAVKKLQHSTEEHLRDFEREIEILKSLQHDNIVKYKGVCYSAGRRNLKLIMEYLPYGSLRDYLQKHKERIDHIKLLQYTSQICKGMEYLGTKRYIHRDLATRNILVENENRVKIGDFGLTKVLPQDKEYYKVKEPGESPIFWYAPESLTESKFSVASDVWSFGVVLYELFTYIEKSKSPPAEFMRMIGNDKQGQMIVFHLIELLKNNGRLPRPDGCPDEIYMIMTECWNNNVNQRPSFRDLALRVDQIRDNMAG

| SMILES | IC50 [1] | IC50 [2] | IC50 [3] | IC50 [4] |
| --- | --- | --- | --- | --- |
| OCc1nn(-c2cc(Cl)ccc2OC(F)F)c2cc(-c3cnn4cccnc34)ncc12 [Example 29, (1-(5-chloro-2-(difluoromethoxy)phenyl)-6-(pyrazolo[1,5-a]pyrimidin-3-yl)-1H-pyrazolo[4,3-c]pyridin-3-yl)methanol] | ≤ 5.01 nM | ≤ 5.01 nM | 5.01 to 50.1 nM | 5.01 to 50.1 nM |
| COc1ccc(S(C)(=O)=O)cc1-n1nc(NCCN2CCOCC2)c2cnc(-c3cnn4cccnc34)cc21 [Example 43, 1-(2-methoxy-5-(methylsulfonyl)phenyl)-N-(2-morpholinoethyl)-6-(pyrazolo[1,5-a]pyrimidin-3-yl)-1H-pyrazolo[4,3-c]pyridin-3-amine] | 5.01 to 50.1 nM | 5.01 to 50.1 nM | 5.01 to 50.1 nM | > 50.1 nM |
| CSc1ccc(OC(F)F)c(-n2nc(C(=O)NCCCN(C)C)c3cnc(-c4cnn5cccnc45)cc32)c1 [Example 37, 1-(2-(difluoromethoxy)-5-(methylthio)phenyl)-N-(3-(dimethylamino)propyl)-6-(pyrazolo[1,5-a]pyrimidin-3-yl)-1H-pyrazolo[4,3-c]pyridine-3-carboxamide] | ≤ 5.01 nM | ≤ 5.01 nM | ≤ 5.01 nM | 5.01 to 50.1 nM |
| COc1ccc(Cl)cc1-n1nc(C(=O)N[C@H]2C[C@@H](O)C2)c2cnc(-c3cnn4cccnc34)cc21 [Example 34, 1-(5-chloro-2-methoxyphenyl)-N-((1s,3s)-3-hydroxycyclobutyl)-6-(pyrazolo[1,5-a]pyrimidin-3-yl)-1H-pyrazolo[4,3-c]pyridine-3-carboxamide] | 5.01 to 50.1 nM | 5.01 to 50.1 nM | 5.01 to 50.1 nM | > 50.1 nM |
| CN(C)Cc1nn(-c2cc(Cl)ccc2OC(F)F)c2cc(-c3cnn4cccnc34)ncc12 [Example 30, 1-(1-(5-chloro-2-(difluoromethoxy)phenyl)-6-(pyrazolo[1,5-a]pyrimidin-3-yl)-1H-pyrazolo[4,3-c]pyridin-3-yl)-N,N-dimethylmethanamine] | 5.01 to 50.1 nM | 5.01 to 50.1 nM | 5.01 to 50.1 nM | > 50.1 nM |
| COc1ccc(Cl)cc1-n1nc(N2CCN(C(C)=O)CC2)c2cnc(-c3cnn4cccnc34)cc21 [Example 47, 1-(4-(1-(5-chloro-2-methoxyphenyl)-6-(pyrazolo[1,5-a]pyrimidin-3-yl)-1H-pyrazolo[4,3-c]pyridin-3-yl)piperazin-1-yl)ethan-1-one] | 5.01 to 50.1 nM | 5.01 to 50.1 nM | 5.01 to 50.1 nM | > 50.1 nM |
| CN(C)[C@H]1C[C@@H](NC(=O)c2nn(-c3cc(Cl)ccc3OC(F)F)c3cc(-c4cnn5cccnc45)ncc23)C1 [Example 36, 1-(5-chloro-2-(difluoromethoxy)phenyl)-N-((1s,3s)-3-(dimethylamino)cyclobutyl)-6-(pyrazolo[1,5-a]pyrimidin-3-yl)-1H-pyrazolo[4,3-c]pyridine-3-carboxamide] | 5.01 to 50.1 nM | 5.01 to 50.1 nM | 5.01 to 50.1 nM | > 50.1 nM |
| COc1ccc(C(F)(F)F)cc1-n1nc(C)c2cnc(-c3cnn4cccnc34)cc21 [Example 4, 1-(2-methoxy-5-(trifluoromethyl)phenyl)-3-methyl-6-(pyrazolo[1,5-a]pyrimidin-3-yl)-1H-pyrazolo[4,3-c]pyridine] | 5.01 to 50.1 nM | ≤ 5.01 nM | 5.01 to 50.1 nM | > 50.1 nM |

Next, values leading:

| IC50 [1] | IC50 [2] | IC50 [3] | IC50 [4] | SMILES |
| --- | --- | --- | --- | --- |
| 5.01 to 50.1 nM | 5.01 to 50.1 nM | 5.01 to 50.1 nM | > 50.1 nM | CNC(=O)CNc1nc(-c2cnn3cccnc23)cc2c1cnn2-c1cc(Cl)ccc1OC [Example 54, 2-((1-(5-chloro-2-methoxyphenyl)-6-(pyrazolo[1,5-a]pyrimidin-3-yl)-1H-pyrazolo[4,3-c]pyridin-4-yl)amino)-N-methylacetamide] |
| 5.01 to 50.1 nM | > 50.1 nM | 5.01 to 50.1 nM | > 50.1 nM | N[C@H]1C[C@@H](NC(=O)c2nn(-c3cc(Cl)ccc3OC(F)F)c3cc(-c4cnn5cccnc45)ncc23)C1 [Example 81, N-((1s,3s)-3-aminocyclobutyl)-1-(5-chloro-2-(difluoromethoxy)phenyl)-6-(pyrazolo[1,5-a]pyrimidin-3-yl)-1H-pyrazolo[4,3-c]pyridine-3-carboxamide] |
| 5.01 to 50.1 nM | 5.01 to 50.1 nM | 5.01 to 50.1 nM | 5.01 to 50.1 nM | COc1ccc(Cl)cc1-n1nc(C(=O)N[C@H]2C[C@H](N)C2)c2cnc(-c3cnn4cccnc34)cc21 [Example 77, N-((1r,3r)-3-aminocyclobutyl)-1-(5-chloro-2-methoxyphenyl)-6-(pyrazolo[1,5-a]pyrimidin-3-yl)-1H-pyrazolo[4,3-c]pyridine-3-carboxamide] |
| 5.01 to 50.1 nM | 5.01 to 50.1 nM | 5.01 to 50.1 nM | > 50.1 nM | COc1cnc(Cl)cc1-n1nc(C)c2cnc(-c3cnn4cccnc34)cc21 [Example 61, 1-(2-chloro-5-methoxypyridin-4-yl)-3-methyl-6-(pyrazolo[1,5-a]pyrimidin-3-yl)-1H-pyrazolo[4,3-c]pyridine] |
| 5.01 to 50.1 nM | 5.01 to 50.1 nM | 5.01 to 50.1 nM | 5.01 to 50.1 nM | COc1ccc(Cl)cc1-n1nc(N2CCNCC2)c2cnc(-c3cnn4cccnc34)cc21 [Example 48, 1-(5-chloro-2-methoxyphenyl)-3-(piperazin-1-yl)-6-(pyrazolo[1,5-a]pyrimidin-3-yl)-1H-pyrazolo[4,3-c]pyridine] |
| ≤ 5.01 nM | ≤ 5.01 nM | 5.01 to 50.1 nM | > 50.1 nM | Cc1nn(-c2cc(S(=O)(=O)CC(N)=O)ccc2OC(F)F)c2cc(-c3cnn4cccnc34)ncc12 [Example 70, 2-((4-(difluoromethoxy)-3-(3-methyl-6-(pyrazolo[1,5-a]pyrimidin-3-yl)-1H-pyrazolo[4,3-c]pyridin-1-yl)phenyl)sulfonyl)acetamide] |
| ≤ 5.01 nM | ≤ 5.01 nM | 5.01 to 50.1 nM | 5.01 to 50.1 nM | COc1ccc(C(F)F)cc1-n1nc(C)c2cnc(Nc3ncc[nH]c3=O)cc21 [Example 91, 3-((1-(5-(difluoromethyl)-2-methoxyphenyl)-3-methyl-1H-pyrazolo[4,3-c]pyridin-6-yl)amino)pyrazin-2(1H)-one] |
